Results reported in PMC12029774 (Molecules, 2025).
Ends that are not written are not given here.

Columns and labels:
[1] = system: rVSV-GFP-∆G-Spike, SARS-CoV-2 Delta spike; details: 1 h
[2] = system: rVSV-GFP-∆G-Spike, SARS-CoV-2 Omicron B.A1 spike; details: 1 h

Substance EWHGAHIKVTQLF-NH2 [PEP10] has an IC50 [1] of 47 µM and an IC50 [2] of 140 µM.
